In patent publication US11415579B2, “Assay for measuring a rate of reaction between a target and a ligand candidate” (Imperial College Innovations Ltd., priority 2016, dated 2022):

How the values were obtained:
[1] = target: T1, Cdk2(R122C) (C177A) (Homo sapiens, UniProt P24941, C177A/R122C); assay: Kinetic thiol consumption assay with Cdk2 mutant R122C; type: binding; design: key to Rate enhancement, Cdk2 R122C: rate constant with Cdk2 ÷ rate constant with model thiol (fold); conditions: additional mutation C177A; for Rate constant with Cdk2 R122C: Protein: Cdk2, cysteine position R122C, in h-1
T1 construct: poly-histidine; made in house; host or cells: E. coli
In short: (§1)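 Thiol consumption was monitored kinetically using 5 μM Cdk2 (C177A plus one introduced cysteine) in degassed phosphate buffer at pH 8 with TCEP beads. Plates were kept 1 h at room temperature before fluorescence reading, and rate constants came from exponential decay fitting.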

[2] = target: T2, Cdk2(S276C) (C177A) (Homo sapiens, UniProt P24941, C177A/S276C); assay: Kinetic thiol consumption assay with Cdk2 mutant S276C; type: binding; design: key to Rate enhancement, Cdk2 S276C: rate constant with Cdk2 ÷ rate constant with model thiol (fold); conditions: additional mutation C177A; for Rate constant with Cdk2 S276C: Protein: Cdk2, cysteine position S276C, in h^-1
T2 construct: poly-histidine; made in house; host or cells: E. coli
In short: as §1

[3] = target: T3, Cdk2(H71C) (C177A) (Homo sapiens, UniProt P24941, C177A/H71C); assay: Kinetic thiol consumption assay with Cdk2 mutant H71C; type: binding; design: key to Rate enhancement, Cdk2 H71C: rate constant with Cdk2 ÷ rate constant with model thiol (fold); conditions: additional mutation C177A; for Rate constant with Cdk2 H71C: Protein: Cdk2, cysteine position H71C, in h^-1
T3 construct: poly-histidine; made in house; host or cells: E. coli
In short: as §1

[4] = target: T4, Cdk2(N272C) (C177A) (Homo sapiens, UniProt P24941, C177A/N272C); assay: Kinetic thiol consumption assay with Cdk2 mutant N272C; type: binding; design: key to Rate enhancement, Cdk2 N272: rate constant with Cdk2 ÷ rate constant with model thiol (fold); conditions: for Rate enhancement, Cdk2 N272: Cdk2 N272, additional mutation C177A; for Rate constant with Cdk2 N272C: Protein: Cdk2, cysteine position N272C, additional mutation C177A, in h^-1
T4 construct: poly-histidine; made in house; host or cells: E. coli
In short: as §1

[5] = target: T5, Cdk2(C177A, F80C) (Homo sapiens, UniProt P24941, C177A/F80C); assay: Kinetic thiol consumption assay with Cdk2 mutant F80C, incl. kobs versus concentration (Kd, k2); type: binding; design: key to Rate enhancement, Cdk2 F80C: Cdk2 rate constant divided by model-thiol rate constant; conditions: additional mutation C177A; for Rate constant with Cdk2 F80C: Protein: Cdk2, cysteine position F80C, in h^-1
T5 construct: poly-histidine; made in house; host or cells: E. coli
In short: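 His-tagged Cdk2(C177A/F80C) from E. coli or model thiol, 5 μM in degassed phosphate buffer pH 8 with TCEP beads, reacted with acrylamide ligands; fluorescence (ex/em 380/470 nm) normalized to DMSO control and fitted to first-order decay for kobs. Kd and k2 obtained from hyperbolic fit of kobs versus ligand concentration.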

[6] = target: T6, Cdk2(T182C) (C177A) (Homo sapiens, UniProt P24941, C177A/T182C); assay: Kinetic thiol consumption assay with Cdk2 mutant T182C; type: binding; design: key to Rate enhancement, Cdk2 T182C: rate constant with Cdk2 ÷ rate constant with model thiol (fold); conditions: additional mutation C177A; for Rate constant with Cdk2 T182C: Protein: Cdk2, cysteine position T182C, in h^-1
T6 construct: poly-histidine; made in house; host or cells: E. coli
In short: as §1

[7] = target: T7, human cyclin-dependent kinase 2 (Cdk2) (Homo sapiens, UniProt P24941); assay: Kinetic thiol consumption assay with wild type Cdk2 (C177); type: binding; design: key to Rate enhancement, Cdk2 WT: k(Cdk2) divided by k(model thiol); Rate constant with Cdk2 (k(Cdk2)): unit not given here; conditions: for Rate constant with Cdk2 (k(Cdk2)): 500 μM ligand, 5 μM thiol, phosphate buffer pH 8; for Rate enhancement, Cdk2 WT: no additional mutations; for Rate constant with Cdk2 WT: Protein: Cdk2, cysteine position WT, in h^-1; for k(Cdk2)/k(Cdk2_mut) rate enhancement: model thiol Cdk2[C177A, F80C, K278C]; for k(Cdk2)/k(GSH) rate enhancement: model thiol glutathione
T7 construct: poly-histidine; made in house; host or cells: E. coli
In short: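 Rate enhancement: first-order decay constant with Cdk2 over that with a model thiol. Thiols (5 μM, degassed phosphate buffer pH 8, immobilized TCEP) were incubated with acrylamides at room temperature, and thiol consumption followed by fluorescence at 380/470 nm, normalized to DMSO control. Cdk2 was His-tagged, E. coli-expressed, with one surface cysteine (C177).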

[8] = Kinetic thiol consumption assay with model thiol glutathione; type: physicochemical; design: Rate constant with glutathione (k(GSH)): unit not given here; conditions: for Rate constant with glutathione (k(GSH)): 500 μM ligand, 5 μM thiol, phosphate buffer pH 8; for Rate constant with Glutathione: Protein: Glutathione, cysteine position NA, in h-1
In short: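 GSH 5 μM, degassed phosphate buffer pH 8, TCEP beads 2% v/v; acrylamide added; RT, 1 h; fluorescence ex/em 380/470 nm; normalized to DMSO/thiol control; k from first-order exponential decay fit.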

[9] = target: T8, Cdk2[C177A, F80C, K278C] (Homo sapiens, UniProt P24941, C177A/F80C/K278C); assay: Kinetic thiol consumption assay with mutant Cdk2 as model thiol; type: binding; design: unit not given here; conditions: 500 μM ligand, 5 μM thiol, phosphate buffer pH 8
T8 construct: poly-histidine; made in house; host or cells: E. coli
Description: A library of 120 acrylamides was screened against a) human cyclin-dependent kinase 2 (Cdk2, which contains one surface exposed cysteine residue—C177), prepared by cloning cDNA into the pRSETA bacterial expression vector to generate a poly-histidine tagged Cdk2 fusion that was purified from E. coli using standard techniques, and b) a model thiol (specific details are given below). The structures of these 120 acrylamides are set out in Table 1, above.
To wells containing 150 μL thiol (Cdk2 or model thiol) (5 μM) in degassed phosphate buffer (pH 8) was added immobilized TCEP beads (2% v/v).
After incubation of the fluorescence plates for 1 hour at room temperature, fluorescence measurements (excitation/emission of 380/470 nm) were taken on a PerkinElmer EnVision multilabel plate reader and processed with EnVision Workstation version 1.12.
Fluorescence measurements were normalized against a DMSO/thiol only control and plotted against time.
Rate constants were calculated using GraphPad software Prism version 6 by fitting a first order exponential decay to the data. The rate constant for each acrylamide with Cdk2 was divided by the rate constant for that fragment with the model thiol to provide the rate enhancement for each ligand candidate.
The model thiol used in Example 2 is a mutant form of human Cdk2 (C177A, F80C, K278C) which contains two engineered surface exposed cysteine residues. Mutations were introduced by site-directed mutagenesis and the resulting cDNA was cloned into the pRSETA bacterial expression vector to generate a poly-histidine tagged Cdk2 fusion that was purified from E. coli using standard techniques.

[10] = target: T9, Cdk2(S181C) (C177A) (Homo sapiens, UniProt P24941, C177A/S181C); assay: Kinetic thiol consumption assay with Cdk2 mutant S181C; type: binding; design: key to Rate enhancement, Cdk2 S181C: rate constant with Cdk2 ÷ rate constant with model thiol (fold); conditions: additional mutation C177A; for Rate constant with Cdk2 S181C: Protein: Cdk2, cysteine position S181C, in h^-1
T9 construct: poly-histidine; made in house; host or cells: E. coli
In short: as §1

Structure (SMILES)	Rate enhancement, Cdk2 R122C [1]	Rate constant with Cdk2 R122C [1]	Rate enhancement, Cdk2 S276C [2]	Rate constant with Cdk2 S276C [2]	Rate enhancement, Cdk2 H71C [3]	Rate constant with Cdk2 H71C [3]	Rate enhancement, Cdk2 N272 [4]	Rate enhancement, Cdk2 F80C [5]	Rate constant with Cdk2 F80C [5]	Rate enhancement, Cdk2 T182C [6]	Rate constant with Cdk2 T182C [6]	Rate constant with Cdk2 (k(Cdk2)) [7]	Rate enhancement, Cdk2 WT [7]	Rate constant with Cdk2 WT [7]	k(Cdk2)/k(Cdk2_mut) rate enhancement [7]	k(Cdk2)/k(GSH) rate enhancement [7]	Rate constant with Cdk2[C177A, F80C, K278C] (k(Cdk2_mut)) [9]	Rate enhancement, Cdk2 S181C [10]	Rate constant with Cdk2 S181C [10]	Rate constant with glutathione (k(GSH)) [8]	also measured
C=CC(=O)N(c1cccc2ncccc12)C1CCC1 [CA-032]	–	–	–	–	–	–	–	–	–	–	–	0.02299	–	–	2.082	1.4	0.01104	–	–	0.01642	–
C=CC(=O)Nc1ccccc1C#N [EL-1178]	0.491	0.02367	0.934	0.04503	0.5613	0.02706	0.1844	1.938	0.09345	5.018	0.2419	0.1611	3.342	0.1611	0.9764	–	0.165	0.5323	0.02566	–	Rate constant with Cdk2 N272C [4]: 0.008888
C=CC(=O)N(Cc1ccco1)Cc1ccco1 [CA-099]	–	–	–	–	–	–	–	–	–	–	–	0.2899	–	–	18.23	1.26	0.0159	–	–	0.23	–
O=C(CCl)NCCc1c[nH]c2ccccc12 [EN005]	0.5681	0.001439	13.55	0.03433	0.852	0.002158	0	0.8693	0.002202	11.33	0.02869	–	6.167	0.01562	–	–	–	5.886	0.01491	–	Rate constant with Glutathione [8]: 0.002533

Second part, led by results:

Rate enhancement, Cdk2 R122C [1]	Rate constant with Cdk2 R122C [1]	Rate enhancement, Cdk2 S276C [2]	Rate constant with Cdk2 S276C [2]	Rate enhancement, Cdk2 H71C [3]	Rate constant with Cdk2 H71C [3]	Rate enhancement, Cdk2 N272 [4]	Rate enhancement, Cdk2 F80C [5]	Rate constant with Cdk2 F80C [5]	Rate enhancement, Cdk2 T182C [6]	Rate constant with Cdk2 T182C [6]	Rate constant with Cdk2 (k(Cdk2)) [7]	Rate enhancement, Cdk2 WT [7]	Rate constant with Cdk2 WT [7]	k(Cdk2)/k(Cdk2_mut) rate enhancement [7]	k(Cdk2)/k(GSH) rate enhancement [7]	Rate constant with Cdk2[C177A, F80C, K278C] (k(Cdk2_mut)) [9]	Rate enhancement, Cdk2 S181C [10]	Rate constant with Cdk2 S181C [10]	Structure (SMILES)	Rate constant with glutathione (k(GSH)) [8]	also measured
0.4198	0.001816	0.9498	0.004109	1.023	0.004426	1.248	1.482	0.006411	1.059	0.004582	0.00267	0.6163	0.002666	0.0662	0.614	0.04027	0.4697	0.002032	C=CC(=O)Nc1ccc2c(c1)OC1(CCCC1)O2 [CA-054]	0.00434	Rate constant with Cdk2 N272C [4]: 0.005397; Rate constant with Glutathione [8]: 0.004326
–	–	–	–	–	–	–	–	–	–	–	0.00879	–	–	1.851	5.108	0.00475	–	–	C=CC(=O)N(C1CC1)C1CCCCC1C1CCCCC1 (stereo not shown) [CA-081]	0.00172	–
–	–	–	–	–	–	–	–	–	–	–	0.00274	–	–	1.317	0.3553	0.00208	–	–	C=CC(=O)N1CCC2(CC1)NC(=O)C1(CCCCC1)N2 [CA-129]	0.00771	–
–	–	–	–	–	–	–	–	–	–	–	0.0034	–	–	0.2652	0.3001	0.01283	–	–	C=CC(=O)N1CCCCCC1C/C=C/c1ccccc1 (stereo not shown) [CA-096]	0.01134	–
–	–	–	–	–	–	–	–	–	–	–	0.02965	–	–	0.9818	0.8399	0.0302	–	–	C=CC(=O)N1CCn2c(C(=O)NC3CC3)ccc2C1C (stereo not shown) [CA-040]	0.0353	–
0.7142	0.008035	1.276	0.01436	0.8889	0.01	0.8907	1.641	0.01846	10.32	0.1161	–	0.3023	0.003401	–	–	–	12.97	0.1459	C=CC(=O)N1CCCCCC1C/C=C/c1ccccc1 (stereo not shown) [CA-096/146]	–	Rate constant with Cdk2 N272C [4]: 0.01002; Rate constant with Glutathione [8]: 0.01125
1.534	0.02509	1.851	0.03029	15.36	0.2513	3.007	2.232	0.03651	14.8	0.2422	–	1.405	0.02299	–	–	–	1.043	0.01707	C=CC(=O)N(c1cccc2ncccc12)C1CCC1 [CA-032/228]	–	Rate constant with Cdk2 N272C [4]: 0.04919; Rate constant with Glutathione [8]: 0.01636
